Results on two compounds are retold here after US12053452B2 (priority 2021, dated 2024).

Like-named read-outs stand apart in the source and are kept apart here.

Data set [1] relates to C57 mice. In words: Social preference procedure: compartment entries (proxy for locomotor stimulant effects), C57. In kind it is in vivo. On the procedure: (§1) This assay was conducted in adult male C57 and BTBR mice (n=6 per group) in a dedicated conditioning room where ambient light, sound, and human contact were tightly controlled. Social preference chambers consist of two polycarbonate boxes (13.5 cm wide×22.5 cm tall×31.0 cm deep), floored with rough-textured black ABS plastic, and connected to one another by a 1.25″ PVC T-junction. An infrared photobeam emitter/detector array is mounted at each intersection of the T-junction and each preference compartment, and as a mouse traversed the apparatus, it would break the photobeam upon entry to or exit from each preference compartment. Beam breaks started or stopped a counter on an interfaced computer, allowing automated collection of time spent in each compartment. At the end of each test, data were reported as time (in seconds) spent in each compartment, the number of entries into each compartment, and the average time spent in each compartment following an entry. Social preference tests were conducted in an iterative manner, with each test subject completing four distinct phases as described below. Between testing sessions, chambers were sanitized by wiping the insides with a disinfectant product provided by the UAMS Department of Laboratory Animal Medicine. At the end of the week (upon completion of all phases of the procedure), each apparatus was disassembled and all parts were sanitized. No food or water were available during social preference sessions, but were available in the home cage immediately afterwards.
Quantification of total entries into the preference compartments provided a proxy measurement for locomotor stimulant effects of the various doses of the various test drugs. This established a limit to the drug doses that can be tested in the social preference procedure, as induction of locomotor stimulant effects confounds preference assessments (because mice stop attending to the social stimuli in each compartment and instead spend their time engaged in locomotor behavior.) Motor activity varied across the distinct phases of social preference testing, in part because the habituation session is twice as long (30 minutes) as the novelty, sociability, and social novelty tests (15 minutes each), but also because mice emitted high levels of exploratory behavior in novel environments. Thus, as familiarity with the test apparatus increased over successive exposures to the chambers, the number of entries decreased.
(Note that entries were collected for every test, but drug effects on entries during earlier phases may be less reliable due to the confounding influence of changing familiarity with the apparatus across phases.)

The test system of data set [2] is C57 mice. In words: Social novelty preference test, C57. In kind it is in vivo. On the procedure: as §1
A single social novelty preference session occurred the day after the sociability test, where one compartment contained a wire mesh cup with the same NIH Swiss mouse from the previous day inside (referred to now as the “familiar” mouse) while the other compartment contained a new male NIH Swiss stranger mouse inside the cup which previously contained the dummy mouse during the sociability test. […] The position of the now familiar NIH Swiss mouse (left or right compartment) remained the same for each subject as during the sociability test the day before, thereby counterbalancing the position of the new NIH Swiss stranger mouse across subjects. As before, the new NIH Swiss stranger mice were housed separately from the experimental subjects (C57 and BTBR mice) in the colony facility, and the first time the experimental subjects ever encountered them was when they entered the compartment where they were contained. During this session, mice were weighed, administered the same injection as the day before, and returned to their home cage for a 30 min pretreatment period. Mice were then introduced into the T-junction and allowed to explore both preference compartments for 15 minutes. Social novelty tests always occurred on Thursdays or Fridays to prevent any weekend testing.

The test system of data set [3] is BTBR mice. In words: Sociability test, BTBR. In kind it is in vivo. The following applies: 3.0 mg/kg IP. On the procedure: as §1, with “At the end of the week (upon completion of all phases of the procedure), each apparatus was disassembled and all parts were sanitized. No food or water were available during social preference sessions, but were available in the home cage immediately afterwards.” left out

Data set [4] concerns C57 mice. The settings on record: mouse, in vivo; for locomotor activity: ip.
The subject of data set [5] is BTBR mice. In words: Novelty preference test, BTBR. In kind it is in vivo. The following applies: all tested doses IP. The method, then: as §1, with “At the end of the week (upon completion of all phases of the procedure), each apparatus was disassembled and all parts were sanitized. No food or water were available during social preference sessions, but were available in the home cage immediately afterwards.” left out

Data set [6] has as its system C57 mice. As to the kind of experiment: Novelty preference test, C57. In kind it is in vivo. The method, then:
as §1
A single novelty preference session occurred the day after the habituation test, where one compartment contained an empty wire mesh cup and the other compartment contained an identical wire mesh cup with a novel dummy mouse inside. The position of the dummy mouse (left or right compartment) was counterbalanced across subjects. Dummy mice were constructed from 2.5″ lengths of white ¾″ PVC pipe, with a zip tie attached to one end (to mimic a tail) and two red dots drawn on the other end (to mimic eyes.) During this session, mice were weighed, administered an injection, and returned to their home cage for a 30 min pretreatment period. Mice were then introduced into the T-junction and allowed to explore both preference compartments for 15 minutes. These tests were conducted as a procedural control to ensure that any observed drug effects were not simply due to enhancement of the innate novelty preference of mice. Novelty preference sessions always occurred on Tuesdays or Wednesdays to prevent any weekend testing.

The conditions of data set [7]: phase 3 trials, MDMA-assisted psychotherapy; cited from earlier work.
For data set [8] the following is noted: autistic adults, MDMA-assisted psychotherapy; cited from earlier work.
The conditions of data set [9]: rats, cited from earlier work; for Cmax (maximum MDMA concentration): 2 mg/kg; for Cmax: 10 mg/kg.
For data set [10] the following is noted: human urine, after racemic MDMA; cited from earlier work.

Turning to `CN[C@@H](C)Cc1ccc2c(c1)OCO2` [S(+)-MDMA, (2S)-1-(1,3-benzodioxol-5-yl)-N-methylpropan-2-amine], the “compartment entries (locomotor stimulant effect)” value with C57 mice [1] (various doses IP) was “dose-response stimulant effect”. In addition, the “social novelty preference (new stranger mouse vs familiar mouse)” value is “not different from saline” with C57 mice [2] (3.0 mg/kg IP); “does not elicit any substantial preference for the stranger mouse” in the data set on C57 mice [2] (3.0 mg/kg and 5.6 mg/kg IP); “no systematic effects on social novelty preference” with C57 mice [2] (various doses IP). Further, the “sociability (time spent with the stranger mouse vs dummy)” value with BTBR mice [3] is on record as “did not alter sociability”. In addition, the “locomotor dose-effect curve (total ambulatory activity)” value in the data set with C57 mice [4] is “classical “inverted U-shaped” dose-effect curve”. Further, the “stereotypy or hyperstimulation of mice” value in the data set on C57 mice [4] is recorded as “stereotypy or hyperstimulation of mice is seen”. In the data set on C57 mice [4] (10 mg/kg), the locomotor activity result is recorded as “elicits the greatest locomotor stimulation”. The “novelty preference (time spent with the dummy mouse)” value with BTBR mice [5] is on record as “No dose of racemic MDMA (e.g comparative composition 1) or S(+)-MDMA (e.g comparative composition 3) elicited any effects on novelty preference”; in the data set on C57 mice [6] (various doses IP), “no systematic effects on novelty preference”.
One may read the Cmax as the peak of the concentration-time curve. On to `CNC(C)Cc1ccc2c(c1)OCO2` (racemic) [racemic MDMA, 1-(1,3-benzodioxol-5-yl)-N-methylpropan-2-amine], for which the “compartment entries (locomotor stimulant effect)” value is “had no effects on locomotor activity” in the data set on C57 mice [1] (3.0 mg/kg IP, social novelty test) and “dose-response stimulant effect” with C57 mice [1] (various doses IP). For the same compound, the “social novelty preference (new stranger mouse vs familiar mouse)” value in the data set on C57 mice [2] (3.0 mg/kg IP, 3 mg/kg) is on record as “strong preference for the stranger over the now familiar mouse”; in the data set on C57 mice [2] (3.0 mg/kg IP, listed as racemic (50/50) MDMA, 3 mg/kg), “elicit significant effects on sociability”; in the data set with C57 mice [2] (various doses IP) it was “dose-dependent increase in time spent with the stranger mouse”; with C57 mice [2] (various doses IP, listed as Racemic MDMA), “bi-phasic dose-response preference for stranger mouse over familiar mouse, with maximum preference documented at 3 mg/kg dose”. The “efficacy to treat Post Traumatic Stress Disorder (PTSD)” value in data set [7] is reported as “demonstrated efficacy”. Besides, in the data set with C57 mice [4], the “locomotor dose-effect curve (total ambulatory activity)” value is recorded as “classical “inverted U-shaped” dose-effect curve”. Also, the “pattern of locomotor activity across the time course” value with C57 mice [4] is on record as “consistent with motor stereotypy”. Moreover, in the data set with C57 mice [4], the “stereotypy or hyperstimulation of mice” value was “stereotypy or hyperstimulation of mice is seen”. For the same compound, the results for the locomotor activity entry in the data set on C57 mice [4] (10 mg/kg) and with C57 mice [4] (30 mg/kg) were “lesser hyperactivity is observed” and “elicit more activity than the pure S(+)-MDMA”, respectively. In addition, the social anxiety symptoms entry in data set [8] is “rapid and durable improvement in social anxiety symptoms”. The “Cmax (maximum MDMA concentration)” value in [9] (intraperitoneal) was 210 ng/mL; in data set [9] (oral), 46 ng/mL; in data set [9] (subcutaneous), 196 ng/mL. The peak concentration (Cmax) in [9] (intraperitoneal) is 2257 ng/mL; in data set [9] (oral), 966 ng/mL; in data set [9] (subcutaneous), 1130 ng/mL. The “novelty preference (time spent with the dummy mouse)” value with BTBR mice [5] is recorded as “No dose of racemic MDMA (e.g comparative composition 1) or S(+)-MDMA (e.g comparative composition 3) elicited any effects on novelty preference”; in the data set on C57 mice [6] (3.0 mg/kg IP), “had no effects on locomotor activity (see FIG. 4) or novelty preference”; with C57 mice [6] (5.6 mg/kg IP), “elicited avoidance of the dummy mouse”. Further, in data set [10], the “enantiomer with higher Cmax” value is listed as “Higher R-enantiomer Cmax”.
